From patent publication US10799521B2, “Use of icaritin in preparing medicament for preventing or treating hematocytopenia” (Lunan Pharmaceutical Group Corporation, priority 2013, dated 2020)
Marks after values point to notes of the source that are not given here.

Experiments:
[1] = test system: tumor-bearing mice (mice ascites tumor s180 cells); assay: Effect on chemotherapy-induced bone marrow suppression in tumor-bearing mice (routine blood test); format: in vivo, Kunming mice; settings: after 10 days once daily, docetaxel 75 mg/m^2/d iv, Tegafur/Gimeracil/Oteracil capsules 222.2 mg/m^2/d intragastric, icaritin 10 mg/kg/d iv
Description: Mice ascites tumor s180 cells were conventionally incubated in 1640 culture medium, at 37° C., 5% CO2, and passaged once every two days in average. The cells in the logarithmic growth phase were prepared into a single-cell suspension having a density of 3.0×10^7 cells/ml with normal saline, which was injected into the abdominal cavities of mice under sterile conditions. Seven days after inoculation, significant swelling of the abdominal cavities of mice can be seen. As this time, the mice were executed by cervical vertebra luxation, put into a beaker containing 75% ethanol and soaked for 2-3 minutes. The sterilized mice were placed into an ultraclean bench, and the abdomens were exposed. The ascites was drawn with a sterile syringe and put into a sterile reagent bottle for further use. The above ascites was counted with trypan blue, diluted with normal saline to adjust to 2.0×10^7 cells/ml, and inoculated at the right armpit of the mice with 0.2 ml for each mouse. The inoculated mice were randomly divided into 6 groups, with 10 animals in each group and half male and half female. Group 1, the model control group: the test animals were intraperitoneally injected with0.9% normal saline (same for the following experiments); Group 2, the docetaxel group: 75 mg/m^2/d of docetaxel; Group 3, the Tegafur, Gimeracil and Oteracil Potassium Capsules group: 222.2 mg/m^2/d of Tegafur, Gimeracil and Oteracil Potassium Capsules; Group 4, the icaritin group: 10 mg/kg/d of the icaritin microemulsion formulation; Group 5, the D+I group (docetaxel+icaritin group): 75 mg/m^2/d of docetaxel+[…] of icaritin; Group 6, the T +I group (Tegafur, Gimeracil and Oteracil Potassium Capsules+icaritin group): 222.2 mg/m^2/d of Tegafur, Gimeracil and Oteracil Potassium Capsules+10 mg/kg/d of icaritin. Docetaxel and icaritin were administered by tail intravenous injection with an administration volume of 10 ml/kg for each. Tegafur, Gimeracil and Oteracil Potassium Capsules was intragastrically administered with an administration volume of 40 ml/kg. Each group was administered once a day for totally 10 days. During the test, the animals were observed every day for their food and water uptake, survival conditions and behaviors, and measured for their body weights every day. After the test was ended, the mice were anaesthetized and anatomized. Blood was collected from abdominal aorta for routine blood test, and the total number of white blood cells, the total number of platelets and the total number of neutrophils were determined.

[2] = parameters: species or system Kunming mice; settings: mouse, in vivo
Description: Mice ascites tumor s180 cells were conventionally incubated in 1640 culture medium, at 37° C., 5% CO2, and passaged once every two days in average. The cells in the logarithmic growth phase were prepared into a single-cell suspension having a density of 3.0×10^7 cells/ml with normal saline, which was injected into the abdominal cavities of mice under sterile conditions. Seven days after inoculation, significant swelling of the abdominal cavities of mice can be seen. As this time, the mice were executed by cervical vertebra luxation, put into a beaker containing 75% ethanol and soaked for 2-3 minutes. The sterilized mice were placed into an ultraclean bench, and the abdomens were exposed. The ascites was drawn with a sterile syringe and put into a sterile reagent bottle for further use. The above ascites was counted with trypan blue, diluted with normal saline to adjust to 2.0×10^7 cells/ml, and inoculated at the right armpit of the mice with 0.2 ml for each mouse.
The inoculated mice were randomly divided into 6 groups, with 10 animals in each group and half male and half female.
Docetaxel and icaritin were administered by tail intravenous injection with an administration volume of 10 ml/kg for each. Tegafur, Gimeracil and Oteracil Potassium Capsules was intragastrically administered with an administration volume of 40 ml/kg. Each group was administered once a day for totally 10 days. During the test, the animals were observed every day for their food and water uptake, survival conditions and behaviors, and measured for their body weights every day. After the test was ended, the mice were anaesthetized and anatomized. Blood was collected from abdominal aorta for routine blood test, and the total number of white blood cells, the total number of platelets and the total number of neutrophils were determined.

[3] = test system: normal mice; assay: Bleeding time in normal mice (tail tip cut); format: in vivo, Kunming mice; parameters: unit not given here; settings: 2 mg/kg by injection, 3 days, 1 h after last administration
Description: 100 Kunming mice were randomly divided into 5 groups, i.e. the blank control group (normal saline group), the icariin group (positive control group), the high-dose icaritin group, the medium-dose icaritin group, and the low-dose icaritin group. Each group was administered as follows. Blank control group: administered with the same volume of normal saline by subcutaneous injection; Icariin group: administered with 2 mg/kg of icariin by injection; High-dose icaritin group: administered with the injection of icaritin of Example 1 by subcutaneous injection at a dosage of 10 mg/kg; Medium-dose icaritin group: administered with the injection of icaritin of Example 1 by subcutaneous injection at a dosage of 5 mg/kg; Low-dose icaritin group: administered with the injection of icaritin of Example 1 by subcutaneous injection at a dosage of 1 mg/kg. Measurement of the bleeding time: The normal saline group (blank control group), the icariin group (positive control group), and the icaritin administration groups (high-, medium-, and low-dose groups) were designed as follows: 50 mice were selected, weighed, and randomly divided into 5 groups, with 10 mice in each group. The animals were administered consecutively for 3 days. At 1 h after the last administration, a filter paper was rolled to form a filter paper cartridge with a diameter similar to that of the mouse body, which was closed at one end. The mouse was allowed to climb into the cartridge. Then about 3 mm of tail tip of the mouse was cut with scissors. A stopwatch was started to record the time when the bleeding started. The tail tip of the mouse was point-contacted with a filter paper gently every 15 s until there was no blood or no blood can be seen.

[4] = test system: normal mice; assay: Clotting time in normal mice (capillary method); format: in vivo, Kunming mice; parameters: unit not given here; settings: 2 mg/kg by injection, 3 days, 1 h after last administration
Description: 100 Kunming mice were randomly divided into 5 groups, i.e. the blank control group (normal saline group), the icariin group (positive control group), the high-dose icaritin group, the medium-dose icaritin group, and the low-dose icaritin group. Each group was administered as follows.
Blank control group: administered with the same volume of normal saline by subcutaneous injection;
Icariin group: administered with 2 mg/kg of icariin by injection;
High-dose icaritin group: administered with the injection of icaritin of Example 1 by subcutaneous injection at a dosage of 10 mg/kg;
Medium-dose icaritin group: administered with the injection of icaritin of Example 1 by subcutaneous injection at a dosage of 5 mg/kg;
Low-dose icaritin group: administered with the injection of icaritin of Example 1 by subcutaneous injection at a dosage of 1 mg/kg.
Measurement of the clotting time: The normal saline group (blank control group), the icariin group (positive control group), and the icaritin administration groups (high-, medium-, and low-dose groups) were designed as follows: 50 mice were selected, weighed and randomly divided into 5 groups, with 10 mice in each group. The animals were administered consecutively for 3 days. At 1 h after the last administration, blood was sampled from the venous plexus by inserting a disposable 20 μl blood collection tube into the inner canthus of the mouse to collect 20 μl of blood. A small fragment of capillary was broken off every 15 s for checking the occurrence of clotting filaments. The time from the blood sampling to the occurrence of fibrous protein filaments (clotting time) was recorded, and the results were shown in Table 5.

[5] = test system: chronic ITP model rats; assay: Platelet count in chronic ITP model rats (anti-rat platelet serum); format: in vivo, Wistar rats; settings: 2 mg/kg sc, 1 h after last administration
Description: Establishment of chronic ITP model: Wistar rats were selected to establish the model by injecting rabbit anti-rat platelet serum (APS). […] 50 Rats in which the model was successfully established were selected, weighed, and randomly divided into 5 groups, i.e. the model control group, the icariin group (positive control group), and the icaritin administration groups (high-, medium- and low-dose groups), with 10 rats in each group. The groups were administered with the following therapeutic agents, respectively.
The model control group: administered by subcutaneous injection with the same volume of normal saline;
(§1) The icariin group: administered by subcutaneous injection with 2 mg/kg of icariin;
(§2) The high-dose icaritin group: administered by subcutaneous injection with 10 mg/kg of the icaritin injection of Example 11;
(§3) The medium-dose icaritin group: administered by subcutaneous injection with 5 mg/kg of the icaritin injection of Example 11;
(§4) The low-dose icaritin group: administered by subcutaneous injection with 1 mg/kg of the icaritin injection of Example 11.
At 1 h after the last administration, blood was sampled from the venous plexus by inserting a disposable 20 μl blood collection tube into the inner canthus of the […].

[6] = test system: active immune thrombocytopenia mice; assay: Active immune thrombocytopenia in mice (platelets in peripheral blood); format: in vivo, Balb/C mice; settings: 2 mg/kg (table), intragastric once a day, x ± s
Description: 72 Balb/C mice were selected, weighed, and randomly divided into […] administration groups, i.e. the normal group, the model control group, the icariin group (positive control group), and the icaritin administration groups (high-, medium-, and low-dose groups), with 12 mice in each group. […] On the second day after the model was established, each group was administered with the following therapeutic agents: The normal group: administered intragastrically with the same volume of normal saline; The model control group: administered intragastrically with the same volume of normal saline; The […]: […]; The high-dose icaritin group: […] Example 9; The medium-dose icaritin group: […] Example 9; The low-dose icaritin group: […] Each of the administration groups was administered once a day and fed normally. After establishing the model three times, each administration group was continued to be administered for one week. The mice were anesthetized, and blood was sampled to measure the number of platelets and determine the effect of icaritin on the number of platelets (PLT) in the peripheral blood.

[7] = test system: model of thrombocytopenia induced by cyclophosphamide in mice; assay: Thrombocytopenia induced by cyclophosphamide in mice (platelets in peripheral blood); format: in vivo, Balb/C mice; settings: cyclophosphamide 50 mg/kg ip model mice; 2 mg/kg sc once a day, 3 weeks; x ± s
Description: 72 Balb/C mice were selected, weighed, and randomly divided into 6 groups, i.e. the normal group, the model control group, the icariin group (positive control group), and the icaritin administration groups (high-, medium-, and low-dose groups), with 12 mice in each group. […] One week before starting to establish the model, each group was administered with the following therapeutic agents:
The normal group: administered subcutaneously with the same volume of normal saline;
The model control group: administered subcutaneously with the same volume of normal saline;
as §1, §2, §3, §4
Each group was administered once a day and fed normally. After consecutive administration for 3 weeks, the mice were anesthetized, and blood was sampled to measure the number of platelets and determine the effect of icaritin on the number of platelets (PLT) in the peripheral blood.

Molecule	Neutrophils [1]	Platelets [1]	White blood cells [1]	Body weight Before Administration [2]	Bleeding Time [3]	Clotting Time [4]	Platelet count [5]	PLT [6]	PLT [7]
CC(=O)O[C@@]12CO[C@@H]1C[C@H](O)[C@@]1(C)C(=O)[C@H](O)C3=C(C)[C@@H](OC(=O)[C@H](O)[C@@H](NC(=O)OC(C)(C)C)c4ccccc4)C[C@@](O)([C@@H](OC(=O)c4ccccc4)[C@H]21)C3(C)C [Docetaxel, reference compound]	0.670 ± 0.12 10^9/L	450.6 ± 30.5 10^9/L	2.773 ± 0.46 10^9/L	21.2 ± 1.8 g					
COc1ccc(-c2oc3c(CC=C(C)C)c(O[C@@H]4O[C@H](CO)[C@@H](O)[C@H](O)[C@H]4O)cc(O)c3c(=O)c2O[C@@H]2O[C@@H](C)[C@H](O)[C@@H](O)[C@H]2O)cc1 [Icariin, reference compound]					4.03 ± 0.45	4.28 ± 0.61	571.8 ± 60.6 ×10^9	850.6 ± 90.1** 10^9/L	550.6 ± 90.1** 10^9/L
Tegafur, Gimeracil and Oteracil Potassium Capsules				21.3 ± 2.3 g					
